Measurements from PMC11033537 (Iranian Journal of Parasitology, 2024).
Values after ≈ are worked out from the molar mass of the structure shown. Read-outs that look alike come from different tables or passages of the source.

Tests used:
[1] = system: intramacrophagic amastigotes of L. amazonensis; conditions: cited from earlier work
MTT cytotoxicity assay = assay type: cell-based; conditions: African green monkey, Vero cells
Vero cells = experiment: MTT cytotoxicity assay; assay type: cell-based; conditions: for CC50: Vero cells
[2] = system: Trichomonas vaginalis cells, TVH1 strain; assay type: cell-based; conditions: for inhibition at 3.9 µg/mL / inhibition at 7.8 µg/mL / inhibition at 15.6 µg/mL / inhibition at 31.2 µg/mL / inhibition at 62.5 µg/mL / inhibition at 250 µg/mL / inhibition at 0.2 µg/mL / inhibition at 0.4 µg/mL / inhibition at 0.8 µg/mL / inhibition at 1.6 µg/mL / inhibition at 3.1 µg/mL / inhibition at 6.2 µg/mL: read-out: Growth inhibition percent (Mean ± SD)
[3] = system: promastigotes of L. amazonensis; conditions: cited from earlier work
[4] = system: Trichomonas vaginalis cells, TVH1 strain; experiment: Annexin V/PI apoptosis assay by flow cytometry; assay type: cell-based; conditions: sub-MLC concentration, 24 hours
Plasmodium falciparum = conditions: cited from earlier work; for antimalarial activity: among 20 nature identical essential oil constituents

Molecule: CC1=CCC2CC1C2(C)C (stereo not drawn) [α-Pinene]
- IC50 (cytotoxic effect) [1]: 15.6 µg/mL (≈ 115 µM)
- CC50 at 12 h (MTT cytotoxicity assay): 226 µg/mL (≈ 1660 µM)
- CC50 at 24 h (MTT cytotoxicity assay): 209 µg/mL (≈ 1530 µM)
- CC50 at 48 h (MTT cytotoxicity assay): 116 µg/mL (≈ 851 µM)
- SI (selectivity index = CC50/IC50) (Vero cells; Vero CC50 / Trichomonas IC50, 12 hours): 5.8
- SI (selectivity index = CC50/IC50) (Vero cells; Vero CC50 / Trichomonas IC50, 24 hours): 6.9
- SI (selectivity index = CC50/IC50) (Vero cells; Vero CC50 / Trichomonas IC50, 48 hours): 5
- average selectivity index (SI) (Vero cells; average of 12, 24 and 48 hours): 5.9
- MLC (minimum lethal concentration) ([2]; 12 hours incubation): 250 µg/mL (≈ 1840 µM)
- MLC (minimum lethal concentration) ([2]; 24 hours incubation): 125 µg/mL (≈ 918 µM)
- MLC (minimum lethal concentration) ([2]; 48 hours incubation): 125 µg/mL (≈ 918 µM)
- IC50 ([2]; Trichomonas vaginalis, 12 h): 38.9 µg/mL (≈ 286 µM)
- inhibition at 3.9 µg/mL ([2]; Trichomonas vaginalis, 12 h): 21.4 ± 7.6%
- inhibition at 7.8 µg/mL ([2]; Trichomonas vaginalis, 12 h): 26.3 ± 5.5%
- inhibition at 15.6 µg/mL ([2]; Trichomonas vaginalis, 12 h): 40.2 ± 6.3%
- inhibition at 31.2 µg/mL ([2]; Trichomonas vaginalis, 12 h): 48.5 ± 4.1%
- inhibition at 62.5 µg/mL ([2]; Trichomonas vaginalis, 12 h): 54.5 ± 3.3%
- inhibition at 250 µg/mL ([2]; Trichomonas vaginalis, 12 h): 100%
- IC50 ([2]; Trichomonas vaginalis, 24 h): 30.2 µg/mL (≈ 222 µM)
- inhibition at 3.9 µg/mL ([2]; Trichomonas vaginalis, 24 h): 15.5 ± 5.8%
- inhibition at 7.8 µg/mL ([2]; Trichomonas vaginalis, 24 h): 29.2 ± 6.3%
- inhibition at 15.6 µg/mL ([2]; Trichomonas vaginalis, 24 h): 69.3 ± 7.7%
- inhibition at 31.2 µg/mL ([2]; Trichomonas vaginalis, 24 h): 76.5 ± 8.8%
- inhibition at 62.5 µg/mL ([2]; Trichomonas vaginalis, 24 h): 80.9 ± 6.4%
- inhibition at 250 µg/mL ([2]; Trichomonas vaginalis, 24 h): 100%
- IC50 ([2]; Trichomonas vaginalis, 48 h): 22.9 µg/mL (≈ 168 µM)
- inhibition at 3.9 µg/mL ([2]; Trichomonas vaginalis, 48 h): 10.2 ± 6.5%
- inhibition at 7.8 µg/mL ([2]; Trichomonas vaginalis, 48 h): 45.3 ± 4.7%
- inhibition at 15.6 µg/mL ([2]; Trichomonas vaginalis, 48 h): 74.3 ± 5.2%
- inhibition at 31.2 µg/mL ([2]; Trichomonas vaginalis, 48 h): 84.1 ± 4.3%
- inhibition at 62.5 µg/mL ([2]; Trichomonas vaginalis, 48 h): 96.7 ± 6.2%
- inhibition at 250 µg/mL ([2]; Trichomonas vaginalis, 48 h): 100%
- IC50 ([2]; Trichomonas vaginalis, read-out: IC50 (range over incubation times)): 22.9 to 38.9 µg/mL (≈ 168 to 286 µM)
- IC50 ([2]; Trichomonas vaginalis, read-out: mean IC50): 30.7 µg/mL (≈ 225 µM)
- IC50 [3]: 19.7 µg/mL (≈ 145 µM)
- necrotic effect [4]: 50.5%
- antimalarial activity (Plasmodium falciparum): most potent antimalarial activity
- IC50 (Plasmodium falciparum; read-out: IC 50 (growth inhibition)): 1200 ± 200 nM

Molecule: Tannic acid
- CC50 (Vero cells; 12 hours): 747 µg/mL
- CC50 (Vero cells; 24 hours): 677 µg/mL
- CC50 (Vero cells; 48 hours): 473 µg/mL
- Growth inhibition percent (Mean ± SD) ([2]; 62.5 μg/ml, 12 hours): 1.4 ± 5.2%
- Growth inhibition percent (Mean ± SD) ([2]; 62.5 μg/ml, 24 hours): 4.3 ± 4.9%
- Growth inhibition percent (Mean ± SD) ([2]; 62.5 μg/ml, 48 hours): 21.1 ± 6.2%
- Growth inhibition percent (Mean ± SD) ([2]; 250 μg/ml, 12 hours): 13.4 ± 8.3%
- Growth inhibition percent (Mean ± SD) ([2]; 250 μg/ml, 24 hours): 26.4 ± 3.9%
- Growth inhibition percent (Mean ± SD) ([2]; 250 μg/ml, 48 hours): 71.5 ± 6.8%
- Growth inhibition percent (Mean ± SD) ([2]; 500 μg/ml, 12 hours): 16.9 ± 5.2%
- Growth inhibition percent (Mean ± SD) ([2]; 500 μg/ml, 24 hours): 33.8 ± 4.8%
- Growth inhibition percent (Mean ± SD) ([2]; 500 μg/ml, 48 hours): 74.9 ± 5.1%
- Growth inhibition percent (Mean ± SD) ([2]; 1000 μg/ml, 12 hours): 19.8 ± 6.7%
- Growth inhibition percent (Mean ± SD) ([2]; 1000 μg/ml, 24 hours): 59.9 ± 6.2%
- Growth inhibition percent (Mean ± SD) ([2]; 1000 μg/ml, 48 hours): 87.6 ± 4.4%
- Growth inhibition percent (Mean ± SD) ([2]; 2000 μg/ml, 12 hours): 78.8 ± 5.1%
- Growth inhibition percent (Mean ± SD) ([2]; 2000 μg/ml, 24 hours): 80.4 ± 3.8%
- Growth inhibition percent (Mean ± SD) ([2]; 2000 μg/ml, 48 hours): 100 ± 0.0%
- Growth inhibition percent (Mean ± SD) ([2]; 4000 μg/ml, 12 hours): 100 ± 0.0%
- Growth inhibition percent (Mean ± SD) ([2]; 4000 μg/ml, 24 hours): 100 ± 0.0%
- Growth inhibition percent (Mean ± SD) ([2]; 4000 μg/ml, 48 hours): 100 ± 0.0%
- IC50 ([2]; 12 hours incubation): 1398 µg/mL
- MLC (minimum lethal concentration) ([2]; 12 hours incubation): 4000 µg/mL
- IC50 ([2]; 24 hours incubation): 689 µg/mL
- MLC (minimum lethal concentration) ([2]; 24 hours incubation): 4000 µg/mL
- IC50 ([2]; 48 hours incubation): 140 µg/mL
- MLC (minimum lethal concentration) ([2]; 48 hours incubation): 2000 µg/mL
- mean IC50 ([2]; average of 12, 24 and 48 hours): 742.3 µg/mL
- necrotic effect [4]: 31.9%

Molecule: Cc1ncc([N+](=O)[O-])n1CCO [Metronidazole, reference compound]
- MLC (minimum lethal concentration) ([2]; 12 hours incubation): 25 µg/mL (≈ 146 µM)
- MLC (minimum lethal concentration) ([2]; 48 hours incubation): 6.25 µg/mL (≈ 36.5 µM)
- drug susceptibility of the isolate ([2]; TVH1 isolate): sensitive
- inhibition at 0.2 µg/mL ([2]; Trichomonas vaginalis, 12 h): 4.9 ± 3.9%
- inhibition at 0.4 µg/mL ([2]; Trichomonas vaginalis, 12 h): 19.3 ± 5.5%
- inhibition at 0.8 µg/mL ([2]; Trichomonas vaginalis, 12 h): 38.9 ± 7.1%
- inhibition at 1.6 µg/mL ([2]; Trichomonas vaginalis, 12 h): 59.2 ± 8.6%
- inhibition at 3.1 µg/mL ([2]; Trichomonas vaginalis, 12 h): 64.6 ± 5.3%
- inhibition at 6.2 µg/mL ([2]; Trichomonas vaginalis, 12 h): 77.5 ± 6.3%
- inhibition at 0.2 µg/mL ([2]; Trichomonas vaginalis, 24 h): 10.3 ± 6.7%
- inhibition at 0.4 µg/mL ([2]; Trichomonas vaginalis, 24 h): 32.8 ± 2.6%
- inhibition at 0.8 µg/mL ([2]; Trichomonas vaginalis, 24 h): 55 ± 4.6%
- inhibition at 1.6 µg/mL ([2]; Trichomonas vaginalis, 24 h): 72.6 ± 2.3%
- inhibition at 3.1 µg/mL ([2]; Trichomonas vaginalis, 24 h): 84.6 ± 2.7%
- inhibition at 6.2 µg/mL ([2]; Trichomonas vaginalis, 24 h): 93.4 ± 0.6%
- inhibition at 0.2 µg/mL ([2]; Trichomonas vaginalis, 48 h): 25.9 ± 4.8%
- inhibition at 0.4 µg/mL ([2]; Trichomonas vaginalis, 48 h): 44 ± 2.2%
- inhibition at 0.8 µg/mL ([2]; Trichomonas vaginalis, 48 h): 73.4 ± 2.5%
- inhibition at 1.6 µg/mL ([2]; Trichomonas vaginalis, 48 h): 91.5 ± 2.3%
- inhibition at 3.1 µg/mL ([2]; Trichomonas vaginalis, 48 h): 98.2 ± 0.4%
- inhibition at 6.2 µg/mL ([2]; Trichomonas vaginalis, 48 h): 100%

Molecule: C=CC(C)(CCC=C(C)C)OC(C)=O (stereo not shown) [linalyl acetate]
- antimalarial activity (Plasmodium falciparum): most potent antimalarial activity

Molecule: CC(C)=C1CC[C@@H](C)CC1=O [pulegone]
- antimalarial activity (Plasmodium falciparum): most potent antimalarial activity

Molecule: C=CC(C)(O)CCC=C(C)CCC=C(C)C (mixture of isomers) [nerolidol]
- antimalarial activity (Plasmodium falciparum): most potent antimalarial activity
